{
  "source": "patent US20130065818A1",
  "about": "“Arylamide Compounds And Compositions And Uses Thereof” (POLYMEDIX, priority 2006, published 2013)",
  "key": {"[1]": {"test_system": "Moraxella species (including Moraxella catarrhalis)", "test": "MIC, 25 ocular isolates, broth microdilution (Example 8)", "assay_type": "cell-based", "experimental": "(§1) Mueller-Hinton Broth supplemented with 2% lysed horse blood in tubes was inoculated with 25 ocular isolates of Streptococcus pneumoniae, Streptococcus viridans group, and Moraxella species (including Moraxella catarrhalis) plus two controls (Staphylococcus aureus and E. coli) and incubated at 37° C. overnight. Additionally, Mueller-Hinton Broth in tubes was inoculated with two controls (Staphylococcus aureus and E. coli) and incubated at 37° C. overnight on a shaker set at 250 rpm.\n(§2) On the day of testing, a 640 μg/ml (1280 μg/ml for Serratia marcescens and Pseudomonas aeruginosa) concentration was prepared from a 1% stock solution in 0.01% acetic acid, 0.2% BSA in polypropylene tubes.\n(§3) Serial doubling dilutions in 0.01% acetic acid, 0.2% BSA in 96 well polypropylene plates, which are used as reservoirs for the inoculation of the test plates, were carried out to obtain serial dilutions of test agents at 10 times the required test concentrations: 640, 320, 160, 80, 40, 20, 10, 5, 2.5, 1.25, and 0.625 μg/ml (1280, 640, 320, 160, 80, 40, 20, 10, 5, 2.5, and 1.25 μg/ml for Serratia marcescens and Pseudomonas aeruginosa).\n(§4) Ten μl of diluted 10×test agents was added to each well of one row of the 96 well polypropylene plates from column 2 to column 12 (column 1 is a control for bacteria alone, with no peptide). Test agent concentrations in columns 2-12 were as follows: 64, 32, 16, 8, 4, 2, 1, 0.5, 0.25, 0.125, and 0.0625 μg/ml (128, 64, 32, 16, 8, 4, 2, 1, 0.5, 0.25, and 0.125 μg/ml for Serratia marcescens and Pseudomonas aeruginosa). The same peptide was in each of the 8 rows. One plate contained dilutions of one test agent and 8 bacterial isolates.\n(§5) On the day of testing, the overnight bacterial broth cultures of Streptococcus pneumoniae, Streptococcus viridans and Moraxella species (including Moraxella catarrhalis) plus two controls (Staphylococcus aureus and E. coli) were diluted in 5 ml of trypticase soy broth to yield turbidity equal to a 0.5 McFarland standard. The final inoculum for MIC testing for Streptococcus pneumoniae, Streptococcus viridans and Moraxella species (including Moraxella catarrhalis) was achieved by placing 0.1 ml of the turbidity adjusted sample to 5 ml of Mueller-Hinton broth containing 2% lysed horse red blood cells.\n(§6) Ninety μl of the bacterial suspensions was dispensed in each well from column 1 to column 12. Each bacterial isolate was placed in one row of a 96 well polypropylene plate containing the test agents. The plates were placed on shaker at 15 minutes at room temperature, and then incubated at 37° C. overnight. MICs were determined visually as the lowest concentration of drug that inhibits visible bacterial growth."}, "[2]": {"test_system": "Streptococcus pneumoniae", "test": "MIC, 25 ocular isolates, broth microdilution (Example 8)", "assay_type": "cell-based", "experimental": "as §1, §2, §3, §4, §5, §6"}, "[3]": {"details": "n=25 isolates, >64 replaced with 128"}},
  "note": "Like-named read-outs stand apart in the source and are kept apart here.",
  "data": [
    {"smiles": "N=C(N)NCCCCC(=O)Nc1cc(C(F)(F)F)cc(NC(=O)c2cnc(C(=O)Nc3cc(C(F)(F)F)cc(NC(=O)CCCCNC(=N)N)c3SCCN)cn2)c1SCCN", "note": "[Oligomer 5]", "values": [
      {"measurement": "MIC", "setting": "[1]; Moraxella, isolate 16 K660 - MS, read-out: MIC", "result": 0.25, "unit": "mg/L"},
      {"measurement": "MIC", "setting": "[1]; Moraxella, isolate 17 K599 - MC, read-out: MIC", "result": 0.25, "unit": "mg/L"},
      {"measurement": "MIC", "setting": "[1]; Moraxella, isolate 18 K1650 - MC, read-out: MIC", "result": 0.25, "unit": "mg/L"},
      {"measurement": "MIC", "setting": "[1]; Moraxella, isolate 19 K1373 - MC, read-out: MIC", "result": 0.125, "unit": "mg/L"},
      {"measurement": "MIC", "setting": "[1]; Moraxella, isolate 20 K1553 - MC, read-out: MIC", "result": 2, "unit": "mg/L"},
      {"measurement": "MIC", "setting": "[1]; Moraxella, isolate 21 K1453 - MC, read-out: MIC", "result": 64, "unit": "mg/L"},
      {"measurement": "MIC", "setting": "[1]; Moraxella, isolate 22 K1227 - MC, read-out: MIC", "result": 1, "unit": "mg/L"},
      {"measurement": "MIC", "setting": "[1]; Moraxella, isolate 23 B1102 - MC, read-out: MIC", "result": 0.5, "unit": "mg/L"},
      {"measurement": "MIC", "setting": "[1]; Moraxella, isolate 24 K1819 - MC, read-out: MIC", "result": 32, "unit": "mg/L"},
      {"measurement": "MIC", "setting": "[1]; Moraxella, isolate 25 K1855 - MC, read-out: MIC", "result": 8, "unit": "mg/L"},
      {"measurement": "MIC50", "setting": "[1]; Moraxella, n=25 isolates, >64 replaced with 128, read-out: MIC50", "result": 0.5, "unit": "mg/L"},
      {"measurement": "MIC90", "setting": "[1]; Moraxella, n=25 isolates, >64 replaced with 128, read-out: MIC90", "result": 32, "unit": "mg/L"},
      {"measurement": "MIC", "setting": "[1]; Moraxella, n=25 isolates, >64 replaced with 128, read-out: Median MIC", "result": 0.5, "unit": "mg/L"},
      {"measurement": "MIC50", "setting": "[1]; [3]", "result": 0.5, "unit": "mg/L"},
      {"measurement": "MIC90", "setting": "[1]; [3]", "result": 32, "unit": "mg/L"},
      {"measurement": "Range of MICs", "setting": "[1]; [3]", "result": "0.125 to 128", "unit": "µg/mL"},
      {"measurement": "MIC50", "setting": "[2]; 25 isolates, Row 13", "result": 4, "unit": "mg/L"},
      {"measurement": "MIC90", "setting": "[2]; 25 isolates, Row 22", "result": 16, "unit": "mg/L"},
      {"measurement": "Range of MICs", "setting": "[2]; 25 isolates, Summary of Results, >64 was Replaced with 128", "result": "4 to 128", "unit": "µg/mL"},
      {"measurement": "MIC", "setting": "[2]; Streptococcus pneumoniae, 25 ocular isolates, Mueller-Hinton broth with 2% lysed horse red blood cells, read-out: Median MIC", "result": "≤ 4", "unit": "mg/L"},
      {"measurement": "MIC", "setting": "[2]; Streptococcus pneumoniae, isolate 1—B1386, read-out: MIC", "result": "> 64", "unit": "mg/L"},
      {"measurement": "MIC", "setting": "[2]; Streptococcus pneumoniae, isolate 2—B1380, read-out: MIC", "result": 4, "unit": "mg/L"},
      {"measurement": "MIC", "setting": "[2]; Streptococcus pneumoniae, isolate 3—B1378, read-out: MIC", "result": 0.5, "unit": "mg/L"},
      {"measurement": "MIC", "setting": "[2]; Streptococcus pneumoniae, isolate 4—B1377, read-out: MIC", "result": 8, "unit": "mg/L"},
      {"measurement": "MIC", "setting": "[2]; Streptococcus pneumoniae, isolate 5—B1373, read-out: MIC", "result": 8, "unit": "mg/L"},
      {"measurement": "MIC", "setting": "[2]; Streptococcus pneumoniae, isolate 6—B1367, read-out: MIC", "result": 16, "unit": "mg/L"},
      {"measurement": "MIC", "setting": "[2]; Streptococcus pneumoniae, isolate 7—B1355, read-out: MIC", "result": 8, "unit": "mg/L"},
      {"measurement": "MIC", "setting": "[2]; Streptococcus pneumoniae, isolate 8—B1353, read-out: MIC", "result": 4, "unit": "mg/L"},
      {"measurement": "MIC", "setting": "[2]; Streptococcus pneumoniae, isolate 9—B1351, read-out: MIC", "result": 1, "unit": "mg/L"},
      {"measurement": "MIC", "setting": "[2]; Streptococcus pneumoniae, isolate 10—B1339, read-out: MIC", "result": 2, "unit": "mg/L"},
      {"measurement": "MIC", "setting": "[2]; Streptococcus pneumoniae, isolate 11—B1337, read-out: MIC", "result": 1, "unit": "mg/L"},
      {"measurement": "MIC", "setting": "[2]; Streptococcus pneumoniae, isolate 12—B1335, read-out: MIC", "result": 1, "unit": "mg/L"},
      {"measurement": "MIC", "setting": "[2]; Streptococcus pneumoniae, isolate 13—B1334, read-out: MIC", "result": 1, "unit": "mg/L"},
      {"measurement": "MIC", "setting": "[2]; Streptococcus pneumoniae, isolate 14—B1333, read-out: MIC", "result": 1, "unit": "mg/L"},
      {"measurement": "MIC", "setting": "[2]; Streptococcus pneumoniae, isolate 15—B1255, read-out: MIC", "result": 1, "unit": "mg/L"},
      {"measurement": "MIC", "setting": "[2]; Streptococcus pneumoniae, isolate 16—B1288, read-out: MIC", "result": 8, "unit": "mg/L"},
      {"measurement": "MIC", "setting": "[2]; Streptococcus pneumoniae, isolate 17—B1287, read-out: MIC", "result": 16, "unit": "mg/L"},
      {"measurement": "MIC", "setting": "[2]; Streptococcus pneumoniae, isolate 18—B1272, read-out: MIC", "result": 1, "unit": "mg/L"},
      {"measurement": "MIC", "setting": "[2]; Streptococcus pneumoniae, isolate 19—B1264, read-out: MIC", "result": 1, "unit": "mg/L"},
      {"measurement": "MIC", "setting": "[2]; Streptococcus pneumoniae, isolate 20—B1252, read-out: MIC", "result": 16, "unit": "mg/L"},
      {"measurement": "MIC", "setting": "[2]; Streptococcus pneumoniae, isolate 21—B1245, read-out: MIC", "result": 2, "unit": "mg/L"},
      {"measurement": "MIC", "setting": "[2]; Streptococcus pneumoniae, isolate 22—B1211, read-out: MIC", "result": 8, "unit": "mg/L"},
      {"measurement": "MIC", "setting": "[2]; Streptococcus pneumoniae, isolate 23—B1213, read-out: MIC", "result": 16, "unit": "mg/L"},
      {"measurement": "MIC", "setting": "[2]; Streptococcus pneumoniae, isolate 24—B1208, read-out: MIC", "result": 8, "unit": "mg/L"},
      {"measurement": "MIC", "setting": "[2]; Streptococcus pneumoniae, isolate 25—B1214, read-out: MIC", "result": 4, "unit": "mg/L"},
      {"measurement": "MIC", "setting": "[2]; Streptococcus pneumoniae, n=25 per group, read-out: Median MIC", "result": 4, "unit": "mg/L"},
      {"measurement": "MIC50", "setting": "[2]; Streptococcus pneumoniae, 25 isolates, Summary of Results, read-out: MIC50", "result": 4, "unit": "mg/L"},
      {"measurement": "MIC90", "setting": "[2]; Streptococcus pneumoniae, 25 isolates, Summary of Results, read-out: MIC90", "result": 16, "unit": "mg/L"},
      {"measurement": "MIC", "setting": "[2]; Streptococcus pneumoniae, 25 isolates, Summary of Results, read-out: Median MIC", "result": 4, "unit": "mg/L"},
      {"measurement": "MIC50", "setting": "[2]; n=25 per group", "result": 4, "unit": "mg/L"},
      {"measurement": "MIC90", "setting": "[2]; n=25 per group", "result": 16, "unit": "mg/L"},
      {"measurement": "Range of MICs", "setting": "[2]; n=25 per group", "result": "4 to 128", "unit": "µg/mL"}
    ]}
  ]
}
